Test results reported in PubChem BioAssay (NCI).
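A five-concentration, 48-hour dose response in 96-well plates underlies each endpoint, interpolated linearly between surrounding concentrations. GI50: concentration for 50% inhibition of growth. At the TGI there is no net growth.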

Key:
Experiment in all cases: DTP human tumour cell line panel, 48 h
HS 578T breast = system: HS 578T breast
SK-MEL-28 melanoma = system: SK-MEL-28 melanoma
HOP-92 NSCLC = system: HOP-92 NSCLC
BT-549 breast = system: BT-549 breast
SR leukemia = system: SR leukemia
RXF 393 renal = system: RXF 393 renal
NCI-H522 lung = system: NCI-H522 lung
UO-31 renal = system: UO-31 renal
UACC-62 melanoma = system: UACC-62 melanoma
T-47D breast = system: T-47D breast
SF-295 CNS = system: SF-295 CNS
OVCAR-4 ovarian = system: OVCAR-4 ovarian
HOP-62 NSCLC = system: HOP-62 NSCLC
MOLT-4 leukemia = system: MOLT-4 leukemia
MCF7 breast = system: MCF7 breast
TK-10 renal = system: TK-10 renal
HL-60(TB) leukemia = system: HL-60(TB) leukemia
MDA-MB-435 = system: MDA-MB-435
IGROV1 ovarian = system: IGROV1 ovarian
OVCAR-8 ovarian = system: OVCAR-8 ovarian
MDA-MB-231 breast = system: MDA-MB-231 breast
CCRF-CEM leukemia = system: CCRF-CEM leukemia
OVCAR-3 ovarian = system: OVCAR-3 ovarian
UACC-257 melanoma = system: UACC-257 melanoma
MALME-3M melanoma = system: MALME-3M melanoma
SK-MEL-5 melanoma = system: SK-MEL-5 melanoma
DU-145 prostate = system: DU-145 prostate
MDA-MB-468 breast = system: MDA-MB-468 breast
LOX IMVI melanoma = system: LOX IMVI melanoma
HCC-2998 colon = system: HCC-2998 colon
NCI-H23 lung = system: NCI-H23 lung
A549 NSCLC = system: A549 NSCLC
SK-MEL-2 melanoma = system: SK-MEL-2 melanoma
EKVX NSCLC = system: EKVX NSCLC
A498 renal = system: A498 renal
K-562 leukemia = system: K-562 leukemia
SW-620 colon = system: SW-620 colon
SK-OV-3 ovarian = system: SK-OV-3 ovarian
PC-3 prostate = system: PC-3 prostate
M14 melanoma = system: M14 melanoma
NCI-H460 lung = system: NCI-H460 lung
SNB-75 CNS = system: SNB-75 CNS
HT29 colon = system: HT29 colon
KM12 colon = system: KM12 colon
SF-539 CNS = system: SF-539 CNS
COLO 205 colon = system: COLO 205 colon
RPMI-8226 leukemia = system: RPMI-8226 leukemia
SN12C renal = system: SN12C renal
HCT-116 colon = system: HCT-116 colon
CAKI-1 renal = system: CAKI-1 renal
OVCAR-5 ovarian = system: OVCAR-5 ovarian
HCT-15 colon = system: HCT-15 colon
ACHN renal = system: ACHN renal
786-0 renal = system: 786-0 renal
SNB-19 CNS = system: SNB-19 CNS
SF-268 CNS = system: SF-268 CNS
NCI-H226 lung = system: NCI-H226 lung

In the case of CONC[C@]1(C)C=C2C(=O)[C@](C)(O)C3(CC3)C(C)=C2[C@H]1O, the GI50 (HS 578T breast) is reported as 2.55 µM, the TGI (HS 578T breast) is reported as 7.26 µM and the GI50 (SK-MEL-28 melanoma) is reported as 1.81 µM. For the same molecule, the TGI (SK-MEL-28 melanoma) was 3.78 µM, the GI50 (HOP-92 NSCLC) was 0.705 µM and the TGI (HOP-92 NSCLC) was 4.32 µM. The GI50 (BT-549 breast) was 1.02 µM, the TGI (BT-549 breast) was 4.67 µM and the GI50 (SR leukemia) was 0.65 µM. It also gave a TGI (SR leukemia) greater than 100 µM, a GI50 (RXF 393 renal) of 0.41 µM and a TGI (RXF 393 renal) of 1.65 µM. It also gave a GI50 (NCI-H522 lung) of 0.314 µM, a TGI (NCI-H522 lung) of 1.47 µM and a GI50 (UO-31 renal) of 1.27 µM. It also gave a TGI (UO-31 renal) of 4.39 µM, a GI50 (UACC-62 melanoma) of 1.55 µM and a TGI (UACC-62 melanoma) of 3.01 µM. For the same molecule, the GI50 (T-47D breast) was 2.05 µM, the TGI (T-47D breast) was 7.89 µM and the GI50 (SF-295 CNS) was 0.345 µM. The TGI (SF-295 CNS) was 42.4 µM, the GI50 (OVCAR-4 ovarian) was 2.9 µM and the TGI (OVCAR-4 ovarian) was 9.09 µM. It also gave a GI50 (HOP-62 NSCLC) of 1.63 µM, a TGI (HOP-62 NSCLC) of 4.55 µM and a GI50 (MOLT-4 leukemia) of 0.688 µM. It also gave a TGI (MOLT-4 leukemia) greater than 100 µM, a GI50 (MCF7 breast) of 0.298 µM and a TGI (MCF7 breast) of 5.34 µM. It also gave a GI50 (TK-10 renal) of 3.32 µM, a TGI (TK-10 renal) of 19.2 µM and a GI50 (HL-60(TB) leukemia) of 0.485 µM. It also gave a TGI (HL-60(TB) leukemia) of 6.44 µM, a GI50 (MDA-MB-435) of 1.84 µM and a TGI (MDA-MB-435) of 3.9 µM. The GI50 (IGROV1 ovarian) was 1.6 µM, the TGI (IGROV1 ovarian) was 8.01 µM and the GI50 (OVCAR-8 ovarian) was 1.44 µM. The TGI (OVCAR-8 ovarian) was 4.35 µM, the GI50 (MDA-MB-231 breast) was 1.75 µM and the TGI (MDA-MB-231 breast) was 5.88 µM. It also gave a GI50 (CCRF-CEM leukemia) of 0.57 µM, a TGI (CCRF-CEM leukemia) of 6.66 µM and a GI50 (OVCAR-3 ovarian) of 2.66 µM. The TGI (OVCAR-3 ovarian) was 7.96 µM, the GI50 (UACC-257 melanoma) was 1.72 µM and the TGI (UACC-257 melanoma) was 4.62 µM. For the same molecule, the GI50 (MALME-3M melanoma) was 1.05 µM, the TGI (MALME-3M melanoma) was 2.49 µM and the GI50 (SK-MEL-5 melanoma) was 1.05 µM. The TGI (SK-MEL-5 melanoma) was 4.95 µM, the GI50 (DU-145 prostate) was 0.436 µM and the TGI (DU-145 prostate) was 16.5 µM. The GI50 (MDA-MB-468 breast) was 0.518 µM, the TGI (MDA-MB-468 breast) was 1.97 µM and the GI50 (LOX IMVI melanoma) was 0.868 µM. For the same molecule, the TGI (LOX IMVI melanoma) was 6.63 µM, the GI50 (HCC-2998 colon) was 1.38 µM and the TGI (HCC-2998 colon) was 3.4 µM. The GI50 (NCI-H23 lung) was 0.422 µM, the TGI (NCI-H23 lung) was 1.89 µM and the GI50 (A549 NSCLC) was 0.324 µM. For the same molecule, the TGI (A549 NSCLC) was 11.3 µM, the GI50 (SK-MEL-2 melanoma) was 0.858 µM and the TGI (SK-MEL-2 melanoma) was 2.25 µM. For the same molecule, the GI50 (EKVX NSCLC) was 1.77 µM, the TGI (EKVX NSCLC) was 4.85 µM and the GI50 (A498 renal) was 2.23 µM. The TGI (A498 renal) was 5.39 µM, the GI50 (K-562 leukemia) was 0.661 µM and the TGI (K-562 leukemia) was greater than 100 µM. For the same molecule, the GI50 (SW-620 colon) was 1.78 µM, the TGI (SW-620 colon) was greater than 100 µM and the GI50 (SK-OV-3 ovarian) was 1.31 µM. The TGI (SK-OV-3 ovarian) was 4.83 µM, the GI50 (PC-3 prostate) was 0.754 µM and the TGI (PC-3 prostate) was 6.12 µM. It also gave a GI50 (M14 melanoma) of 1.41 µM, a TGI (M14 melanoma) of 4.87 µM and a GI50 (NCI-H460 lung) of 0.353 µM. It also gave a TGI (NCI-H460 lung) of 11 µM, a GI50 (SNB-75 CNS) of 1.76 µM and a TGI (SNB-75 CNS) of 3.8 µM. It also gave a GI50 (HT29 colon) of 0.42 µM, a TGI (HT29 colon) of 6.66 µM and a GI50 (KM12 colon) of 2.32 µM. For the same molecule, the TGI (KM12 colon) was 15.4 µM, the GI50 (SF-539 CNS) was 1.28 µM and the TGI (SF-539 CNS) was 2.79 µM. It also gave a GI50 (COLO 205 colon) of 1.48 µM, a TGI (COLO 205 colon) of 3.21 µM and a GI50 (RPMI-8226 leukemia) of 9.67 µM. It also gave a TGI (RPMI-8226 leukemia) greater than 100 µM, a GI50 (SN12C renal) of 2.33 µM and a TGI (SN12C renal) of 9.36 µM. The GI50 (HCT-116 colon) was 0.298 µM, the TGI (HCT-116 colon) was 46.4 µM and the GI50 (CAKI-1 renal) was 1.05 µM. For the same molecule, the TGI (CAKI-1 renal) was 18.8 µM, the GI50 (OVCAR-5 ovarian) was 0.346 µM and the TGI (OVCAR-5 ovarian) was 5.65 µM. For the same molecule, the GI50 (HCT-15 colon) was 0.384 µM, the TGI (HCT-15 colon) was greater than 100 µM and the GI50 (ACHN renal) was 0.233 µM. For the same molecule, the TGI (ACHN renal) was 0.565 µM, the GI50 (786-0 renal) was 1.65 µM and the TGI (786-0 renal) was 6.9 µM. It also gave a GI50 (SNB-19 CNS) of 2.12 µM, a TGI (SNB-19 CNS) of 7.58 µM and a GI50 (SF-268 CNS) of 1.07 µM. It also gave a TGI (SF-268 CNS) of 12.8 µM, a GI50 (NCI-H226 lung) of 2.95 µM and a TGI (NCI-H226 lung) of 9.13 µM.
